Laboratory results published in patent US20010014680A1 (priority 1998, published 2001).
Where a name gives a salt, the structure may show the parent alone.

What was measured:
human 5HT1A receptor [1] = target: T1, human 5HT1A receptor (Homo sapiens, UniProt P08908); assay: 5-HT1A Receptor Intrinsic Activity Assay (cAMP); assay type: cell-based; conditions: reversal of forskolin (1 μM) stimulated cAMP in CHO cells stably transfected with human 5-HT1A receptor; RIA
T1 construct: expressed in transfected cells; host or cells: CHO cells, stably transfected
T1 sequence (P08908 1-422): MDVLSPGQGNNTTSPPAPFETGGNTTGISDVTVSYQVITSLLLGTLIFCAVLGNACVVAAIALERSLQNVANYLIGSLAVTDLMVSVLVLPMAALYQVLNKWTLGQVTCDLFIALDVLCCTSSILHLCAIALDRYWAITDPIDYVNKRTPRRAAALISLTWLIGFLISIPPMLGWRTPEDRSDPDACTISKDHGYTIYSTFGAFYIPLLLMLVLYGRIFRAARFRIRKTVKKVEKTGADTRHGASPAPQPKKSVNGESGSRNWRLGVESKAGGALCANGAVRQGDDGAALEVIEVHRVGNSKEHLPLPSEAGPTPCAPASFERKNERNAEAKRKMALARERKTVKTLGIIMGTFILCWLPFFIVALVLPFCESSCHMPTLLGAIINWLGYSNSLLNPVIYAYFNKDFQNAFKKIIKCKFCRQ
Experimental: 5-HT1A Receptor Intrinsic Activity Assay
The intrinsic activity of compounds of the present invention was established by testing the claimed compounds ability to reverse the stimulation of cyclic adenosinemonophosphate (cAMP) in CHO cells stably transfected with the human 5-HT1A receptor.
Stably transfected CHO cells were grown in DMEM containing 10% heat inactivated FBS and non-essential amino acids. The cells are plated at a density of […] per well in a 24 well plate and incubated for 2 days in a CO2 incubator. On the second day, the media is replaced with 0.5 mL treatment buffer (DMEM + 25 mM HEPES, 5 mM theophylline, 10 μM pargyline) and incubated for 10 minutes at 37° C. Wells are treated with forskolin (1 μM final concentration) followed immediately by the test compound (0.1 and 1 μM for initial screen) and incubated for an additional 10 minutes at 37° C. The reaction is terminated by removal of the media and addition of 0.5 mL ice cold assay buffer (supplied in the RIA kit). Plates are stored at −20° C. prior to assessment of cAMP formation by RIA. EC50 values are determined for the active test compounds. Compounds shown to have no agonist activities (Emax=0%) are further analyzed for their ability to reverse agonist induced activity. In separate experiments, 6 concentrations of antagonist are preincubated for 20 minutes prior to the addition of agonist and forskolin. Cells are harvested as described above. The cAMP kit is supplied by Amersham and the RIA is performed as per kit instructions, and calculations of IC50 performed by GraphPad Prism.

human 5HT1A receptor [2] = target: T1, human 5HT1A receptor; assay: 5-HT1A Receptor Binding Assay ([3H] 8-OH-DPAT displacement); conditions: displacement of [3H] 8-OH-DPAT (1.5 nM) in CHO cells stably transfected with human 5HT1A receptor
Experimental: 5-HT1A Receptor Binding Assay
High affinity for the serotonin 5-HT1A receptor was established by testing the claimed compound's ability to displace [^3H] 8-OH-DPAT binding in CHO cells stably transfected with the human 5HT1A receptor. Stably transfected CHO cells are grown in DMEM containing 10% heat inactivated FBS and non-essential amino acids. Cells are scraped off the plate, transferred to centrifuge tubes, and washed twice by centrifugation (2000 rpm for 10 min., 4° C.) in buffer (50 mM Tris pH 7.5). The resulting pellets are aliquoted and placed at −80° C. On the day of assay, the cells are thawed on ice and resuspended in buffer. The binding assay is performed in a 96 well microtiter plate in a total volume of 250 μL. Non-specific binding is determined in the presence of […], final ligand concentration is 1.5 nM. Following a 30 minute incubation at room temperature, the reaction is terminated by the addition of ice cold buffer and rapid filtration through a GF/B filter presoaked for 30 minutes in 0.5% PEI. Compounds are initially tested in a single point assay to determine percent inhibition at […], and Ki values are determined for the active compounds.

| melting point [°C] | Structure (SMILES) | Emax (human 5HT1A receptor [1]) [%] | Ki (human 5HT1A receptor [2]) [nM] |
| --- | --- | --- | --- |
|  | COc1ccccc1N1CCN(CC2CCCNC2)CC1 (centres unmarked) [Example 6, 1-(2-Methoxy-phenyl)-4-piperidin-3-ylmethyl-piperazine] | 0 | 2 |
|  | COc1ccccc1N1CCN(CC2CCN(CC3CCCCC3)CC2)CC1 [Example 3] | 89 | 8.4 |
| > 240 | O=C(C1CCNCC1)N1CCN(c2cccc3[nH]ccc23)CC1 (as salt: HCl) [Example 11, [4-(1H-Indol-4-yl)-piperazin-1-yl]-piperidin-4-yl-methanone] |  |  |
|  | COc1ccccc1N1CCN(CC2CCNCC2)CC1 [Example 1, 1-(2-Methoxy-phenyl)-4-piperidin-4-ylmethyl-piperazine] | 0 |  |
|  | COc1ccccc1N1CCN(CC2CCCN(Cc3ccccc3)C2)CC1 (centres unmarked) [Example 9, 1-(1-Benzyl-piperidin-3-ylmethyl)-4-(2-methoxy-phenyl)-piperazine] | 79 | 14 |
